Values quoted from earlier work as cited in patent publication US11033512B2, “Transdermal therapeutic system containing asenapine and silicone acrylic hybrid polymer” (LTS LOHMANN Therapie-Systeme AG, priority 2017, dated 2021).

Tests used:
[1] = target: serotonin 5-HT2A receptors (Homo sapiens, UniProt P28223)
Sequence of serotonin 5-HT2A receptors (P28223 whole entry): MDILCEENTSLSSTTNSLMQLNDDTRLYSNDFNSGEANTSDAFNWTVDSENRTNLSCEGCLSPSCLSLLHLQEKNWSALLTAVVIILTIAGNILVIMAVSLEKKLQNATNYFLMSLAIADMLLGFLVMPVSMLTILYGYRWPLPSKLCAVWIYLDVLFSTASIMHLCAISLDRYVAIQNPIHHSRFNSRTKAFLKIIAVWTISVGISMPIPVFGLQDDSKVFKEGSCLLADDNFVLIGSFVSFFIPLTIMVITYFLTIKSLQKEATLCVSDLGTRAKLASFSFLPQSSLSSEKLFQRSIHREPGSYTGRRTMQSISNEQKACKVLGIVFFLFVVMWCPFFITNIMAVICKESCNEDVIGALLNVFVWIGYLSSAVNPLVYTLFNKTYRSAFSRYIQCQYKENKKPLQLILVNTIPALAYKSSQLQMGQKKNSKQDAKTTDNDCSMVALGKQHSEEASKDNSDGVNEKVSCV

time of peak blood plasma concentrations (following sublingual administration): 0.5 to 1.5 h
terminal disposition half-life (following sublingual administration, therapeutic doses): ≥ 24 h
bioavailability (if ingested): < 2%
affinity [1]: high affinity
Structure (SMILES): CN1C[C@H]2c3ccccc3Oc3ccc(Cl)cc3[C@@H]2C1 (relative stereo) [asenapine, (3aRS,12bRS)-rel-5-chloro-2,3,3a,12b-tetrahydro-2-methyl-1H-dibenz[2,3:6,7]oxepino[4,5-c]pyrrole]
